Some test systems named below: MDA-MB-231; UACC-257; M14; DU-145; SK-MEL-28; CAKI-1; HL-60; LOX IMVI; TK-10; SN12C; NCI-H522; OVCAR-4; U-251; HCC 2998; SNB-19; A498; A549; MDA-MB-435; ACHN; RPMI-8226.
Holding throughout (test): NCI tumour cell line growth inhibition, 48 h

The structures appear in SMILES notation.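 Results reflect a 48-hour exposure of cells in 96-well plates to compound at five concentrations. GI50 is the concentration that inhibits growth by half.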 Active and inactive are the calls of the source. No stated cut-off is given here; in the data, active = GI50 up to about 1.1 µM and inactive = higher.

For `CC[C@@H]1CN(C)[C@H]2Cc3c([nH]c4ccccc34)C(=O)C[C@H]1C2C(=O)OC` (stereo not given in full), the GI50 with MDA-MB-231, in the test on UACC-257, in the test on M14, in the test on DU-145, with SK-MEL-28 and in the test on CAKI-1 was > 100 µM (inactive) in each case. Also, the GI50 with HL-60 was > 89.3 µM (inactive); in the test with LOX IMVI, > 100 µM (inactive); with TK-10, > 58.9 µM (inactive); in the test with SN12C, > 100 µM (inactive); with NCI-H522 it was > 100 µM (inactive); in the test with OVCAR-4, > 31.6 µM (inactive). Moreover, the GI50 with U-251, with HCC 2998, with SNB-19, in the test on A498, in the test on A549 and with MDA-MB-435 was > 100 µM (inactive) each time. In addition, the GI50 in the test on ACHN is > 100 µM (inactive); in the test on RPMI-8226 it was > 88.5 µM (inactive).
In the case of `FC1CCN(C2(c3cccs3)CCCCC2)CC1`, the GI50 with MDA-MB-231 is > 100 µM (inactive); with UACC-257 it was 60.4 µM (inactive); in the test with M14, 77.1 µM (inactive); with DU-145 it was > 100 µM (inactive); in the test with SK-MEL-28, > 100 µM (inactive); in the test with CAKI-1 it was > 100 µM (inactive). The GI50 in the test on HL-60 was > 100 µM (inactive); in the test on LOX IMVI it was 96.6 µM (inactive); with TK-10, > 100 µM (inactive); with SN12C it was > 100 µM (inactive); in the test on NCI-H522, > 100 µM (inactive); in the test on OVCAR-4 it was > 100 µM (inactive). In addition, the GI50 is > 100 µM (inactive) in the test with U-251; 27.2 µM (inactive) in the test on HCC 2998; > 100 µM (inactive) with SNB-19; > 100 µM (inactive) with A498; > 100 µM (inactive) in the test on A549; > 100 µM (inactive) in the test with MDA-MB-435. The values for the GI50 with ACHN and with RPMI-8226 were > 100 µM (inactive) and 56.5 µM (inactive), respectively.
As for `O=C(O)C(Br)C(Br)C(=O)O` (stereo not given), the GI50 in the test on MDA-MB-231, in the test on UACC-257, with M14, in the test with DU-145, with SK-MEL-28 and in the test with CAKI-1 was > 100 µM (inactive) throughout. Moreover, the GI50 with HL-60, with LOX IMVI, with TK-10, with SN12C, in the test on NCI-H522 and in the test on OVCAR-4 was > 100 µM (inactive) each time. Also, the GI50 in the test on U-251, with HCC 2998, in the test on SNB-19, with A498, with A549 and with MDA-MB-435 was > 100 µM (inactive) each time. Further, the GI50 with ACHN and in the test with RPMI-8226 was > 100 µM (inactive) in each case.
Take `O=C1c2n[nH]nc2C(=O)c2n[nH]nc21`: the GI50 in the test with MDA-MB-231, in the test with UACC-257, in the test with M14, with DU-145, with SK-MEL-28 and with CAKI-1 was > 100 µM (inactive) each time. Moreover, the GI50 in the test on HL-60, with LOX IMVI, in the test on TK-10, with SN12C, in the test with NCI-H522 and in the test on OVCAR-4 was > 100 µM (inactive) in each case. The GI50 in the test with U-251, in the test on HCC 2998, with SNB-19, with A498, in the test with A549 and in the test on MDA-MB-435 was > 100 µM (inactive) in each case. In addition, the GI50 in the test on ACHN and in the test on RPMI-8226 was > 100 µM (inactive) each time.
In the case of `CC(C)(C)c1cc2c(O)c(c1)Cc1cc(C(C#N)(Cc3ccc4ccccc4c3)Cc3ccc4ccccc4c3)cc(c1O)Cc1cc(C(C)(C)C)cc(c1O)Cc1cc(C(C#N)(Cc3ccc4ccccc4c3)Cc3ccc4ccccc4c3)cc(c1O)C2`, the GI50 in the test with MDA-MB-231, in the test on UACC-257, with M14, with DU-145, in the test with SK-MEL-28 and with CAKI-1 was > 100 µM (inactive) throughout. Also, the GI50 in the test with HL-60, in the test with LOX IMVI, in the test on TK-10, with SN12C, in the test with NCI-H522 and in the test on OVCAR-4 was > 100 µM (inactive) each time. The GI50 in the test on U-251 was 67 µM (inactive); in the test on HCC 2998, > 100 µM (inactive); in the test on SNB-19, > 100 µM (inactive); in the test on A498, > 100 µM (inactive); in the test on A549, > 100 µM (inactive); in the test on MDA-MB-435, > 100 µM (inactive). The GI50 in the test with ACHN and in the test with RPMI-8226 was > 100 µM (inactive) each time.
Take `COC(=O)[C@@H]1c2cc3c(c(O)c2[C@@H](OC2OC(C)C(OC)C(C)(OC)C2OC)C[C@]1(C)O)C(=O)c1c(O)cc2c(c1C3=O)O[C@H]1O[C@]2(C)[C@H](O)[C@@H](N(C)C)[C@@H]1O` (stereo not given in full): the GI50 in the test with MDA-MB-231 is 0.0288 µM (active); in the test on UACC-257, 0.0143 µM (active); in the test with M14 it was 0.0317 µM (active); with DU-145, 0.0859 µM (active); in the test on SK-MEL-28 it was 0.00556 µM (active); in the test on CAKI-1, 0.0419 µM (active). Further, the GI50 was 0.0148 µM (active) in the test with HL-60; 0.00254 µM (active) in the test on LOX IMVI; 0.0297 µM (active) in the test with TK-10; < 0.0232 µM (active) in the test with SN12C; 0.0138 µM (active) in the test with NCI-H522; 0.0191 µM (active) in the test with OVCAR-4. The GI50 in the test with U-251 was 0.00766 µM (active); with HCC 2998, 0.00433 µM (active); with SNB-19 it was 0.00502 µM (active); in the test on A498, 0.000507 µM (active); in the test with A549, 0.0156 µM (active); in the test on MDA-MB-435 it was 0.0612 µM (active). The GI50 with ACHN is 0.069 µM (active); in the test on RPMI-8226, 0.00243 µM (active).
Consider `Nc1c(C(=O)c2ccc(Cl)cc2)[nH]c(Nc2ccc(Cl)cc2)c1C(=S)Nc1ccccc1`, for which the GI50 was 4.55 µM (inactive) in the test with MDA-MB-231; 11.2 µM (inactive) in the test on UACC-257; 11.9 µM (inactive) with M14; 5.41 µM (inactive) in the test on DU-145; 4.27 µM (inactive) with SK-MEL-28; 6.05 µM (inactive) in the test on CAKI-1. Besides, the GI50 in the test with HL-60 was 49.5 µM (inactive); in the test with LOX IMVI, 3.64 µM (inactive); in the test with TK-10, 5.4 µM (inactive); in the test on SN12C, 7.71 µM (inactive); in the test with NCI-H522, 4.83 µM (inactive); in the test on OVCAR-4, 2.08 µM (inactive). Moreover, the GI50 in the test with U-251 was 2.97 µM (inactive); in the test with HCC 2998, 2.74 µM (inactive); with SNB-19, 4.36 µM (inactive); in the test on A498 it was 12.7 µM (inactive); in the test with A549, 3.21 µM (inactive); in the test on MDA-MB-435, 7.14 µM (inactive). Also, the values for the GI50 in the test with ACHN and in the test on RPMI-8226 were 2.21 µM (inactive) and 14.5 µM (inactive), respectively.
With `[O-][S+]1SC(=S)C2C=CC=NC21` (stereo not given), the GI50 in the test on MDA-MB-231 is 18.7 µM (inactive); in the test on UACC-257, 15.4 µM (inactive); in the test on M14 it was 15.3 µM (inactive); in the test on DU-145, 16.6 µM (inactive); in the test with SK-MEL-28, > 100 µM (inactive); in the test with CAKI-1, > 100 µM (inactive). The GI50 was > 100 µM (inactive) with HL-60; 14.9 µM (inactive) in the test on LOX IMVI; 18.1 µM (inactive) in the test with TK-10; 14.8 µM (inactive) with SN12C; 14.3 µM (inactive) in the test on NCI-H522; > 100 µM (inactive) with OVCAR-4. For the same compound, the GI50 in the test on U-251 is 18 µM (inactive); with HCC 2998, 15.5 µM (inactive); in the test on SNB-19, 26.1 µM (inactive); in the test with A498 it was 27.6 µM (inactive); in the test on A549, 19.2 µM (inactive); in the test on MDA-MB-435 it was > 100 µM (inactive). In addition, the GI50 in the test with ACHN is 18.1 µM (inactive); with RPMI-8226 it was 32.1 µM (inactive).
Regarding `COC(=O)[C@]12CC[C@H]3CN(C(=O)OCc4ccccc4)[C@H]([C@H]31)[C@H](c1ccco1)N2`, the GI50 in the test on MDA-MB-231 was 82 µM (inactive); in the test with UACC-257 it was 29.9 µM (inactive); in the test with M14 it was 38 µM (inactive); in the test on DU-145, > 100 µM (inactive); in the test on SK-MEL-28 it was 51.3 µM (inactive); in the test with CAKI-1, 35.8 µM (inactive). Besides, the GI50 in the test on HL-60 was 28.8 µM (inactive); in the test on LOX IMVI, 53.2 µM (inactive); with TK-10 it was > 100 µM (inactive); with SN12C, 46.2 µM (inactive); with NCI-H522, 14.1 µM (inactive); in the test with OVCAR-4, 0.61 µM (active). In addition, the GI50 was 84.7 µM (inactive) with U-251; > 100 µM (inactive) with HCC 2998; > 100 µM (inactive) in the test on SNB-19; 0.0226 µM (active) in the test on A498; 37.2 µM (inactive) in the test on A549; 19.4 µM (inactive) in the test on MDA-MB-435. In addition, the figures for the GI50 in the test with ACHN and with RPMI-8226 were 43.5 µM (inactive) and 27.4 µM (inactive), respectively.
Consider `CC(=O)Oc1ccc2c(c1)CC[C@@H]1C2[C@@H](O[N+](=O)[O-])C[C@@]2(C)C1CC[C@@H]2O` (stereo not given in full), for which the GI50 was 39.1 µM (inactive) in the test with MDA-MB-231; 67.5 µM (inactive) in the test on UACC-257; 28.3 µM (inactive) with M14; 28.7 µM (inactive) in the test with DU-145; 48.9 µM (inactive) with SK-MEL-28; 78 µM (inactive) in the test on CAKI-1. Besides, the GI50 in the test on HL-60 is 9.2 µM (inactive); in the test with LOX IMVI it was 27.7 µM (inactive); in the test on TK-10 it was 49.8 µM (inactive); with SN12C, 34.5 µM (inactive); in the test with NCI-H522 it was 21.1 µM (inactive); with OVCAR-4 it was 52.1 µM (inactive). Besides, the GI50 with U-251 was 27.6 µM (inactive); in the test on HCC 2998, 10.6 µM (inactive); in the test with SNB-19, 35.6 µM (inactive); in the test with A498, 31.2 µM (inactive); in the test with A549, 37.3 µM (inactive); with MDA-MB-435, 7.31 µM (inactive). The GI50 was 61.1 µM (inactive) in the test with ACHN and 21 µM (inactive) in the test with RPMI-8226.

Source of the values: ChEMBL document CHEMBL1201862, “PubChem BioAssay data set” (2004).
